Reference: patent US11648254B2 (Kumquat Biosciences Inc., priority 2021, dated 2023)
Read-outs that look alike come from different tables or passages of the source.

Experiments:
SOS1 = SOS1 (Homo sapiens (Human), UniProt Q07889); assay: Ras-SOS interaction assay (HTRF); type: biochemical
[1] = system: MIA PaCa-2 cells (K-Ras G12C); assay: Ras-SOS cellular growth inhibition assay (CellTiter-Glo, 3D); type: cell-based; settings: Homo sapiens
Method in brief: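 MIA PaCa-2 cells grown in ultra-low-attachment plates (3D) in DMEM/Ham's F12 with 10% FCS and 2.5% horse serum, treated the day after seeding with a 9-point 3-fold compound series for about 5 days. Viability by CellTiter-Glo luminescence; IC50 from four-parameter fit.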

[2] = system: NCI-H1975 cells (EGFR T790M L858R); assay: EGFR-SOS cellular inhibition assay (CellTiter-Glo, 3D); type: cell-based; settings: Homo sapiens
[3] = K-RasG13D utilized, read-out: IC50 inhibition of SOS
[4] = K-RasG13D, read-out: IC50 value against SOS1
[5] = MIA PaCa-2, 120 h, MIA PaCa-2, 3D proliferation, about 5 days, read-out: Bio-Cell-Prolif-3D (MiaPaca2 IC50)
[6] = 120 h, NCI-H1975, 3D proliferation, about 5 days, read-out: Bio-Cell-Prolif-3D (H1975 IC50)
[7] = NCI-H1975, EGFR T790M L858R, read-out: IC50 in inhibiting growth of NCI-H1975 cell line
[8] = MIA PaCa-2, MIA PaCa-2, read-out: IC50 in inhibiting MIA PaCa-2 cell growth

Sequence of SOS1 (Q07889 564-1049): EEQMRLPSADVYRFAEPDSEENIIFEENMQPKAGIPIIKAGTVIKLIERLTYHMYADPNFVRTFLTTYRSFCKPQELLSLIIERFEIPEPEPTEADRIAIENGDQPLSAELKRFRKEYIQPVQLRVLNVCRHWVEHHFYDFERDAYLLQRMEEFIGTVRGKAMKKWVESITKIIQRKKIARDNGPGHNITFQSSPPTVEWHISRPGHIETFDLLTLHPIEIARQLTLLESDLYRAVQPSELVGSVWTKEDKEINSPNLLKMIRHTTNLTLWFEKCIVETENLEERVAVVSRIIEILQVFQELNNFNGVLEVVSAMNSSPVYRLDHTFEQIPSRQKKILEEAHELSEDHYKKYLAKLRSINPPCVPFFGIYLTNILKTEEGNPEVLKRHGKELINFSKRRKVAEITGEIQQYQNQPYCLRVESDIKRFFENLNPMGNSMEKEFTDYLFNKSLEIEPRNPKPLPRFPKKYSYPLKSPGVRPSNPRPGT

Compound	IC50 (SOS1; [3]) [nM]	IC50 (SOS1; [4]) [nM]	IC50 [1, 5] [nM]	IC50 [2, 6] [nM]	IC50 [2, 7] [nM]	IC50 [1, 8] [nM]
COc1nc2ncnc(N[C@H](C)c3cccc(C(F)F)c3F)c2cc1C1(C#N)CCS(=O)(=O)CC1 [Compound 342, (R)-4-(4-((1-(3-(difluoromethyl)-2-fluorophenyl)ethyl)amino)-7-methoxypyrido[2,3-d]pyrimidin-6-yl)tetrahydro-2H-thiopyran-4-carbonitrile 1,1-dioxide]	< 100	< 50	≤ 1000	≤ 1000	< 500	–
COCCOc1nc2nc(C)nc(N[C@H](C)c3cccc(C(F)F)c3F)c2cc1N1CCN(C)CC1 [Compound 343, (R)-N-(1-(3-(difluoromethyl)-2-fluorophenyl)ethyl)-7-(2-methoxyethoxy)-2-methyl-6-(4-methylpiperazin-1-yl)pyrido[2,3-d] pyrimidin-4-amine]	< 100	< 50	≤ 1000	≤ 1000	< 500	–
COc1nc2nc(C)nc(N[C@H](C)c3cccc(C(F)(F)CO)c3)c2cc1N1CCN(C(C)C)CC1 [Compound 345, (R)-2,2-difluoro-2-(3-(1-((6-(4-isopropylpiperazin-1-yl)-7-methoxy-2-methylpyrido[2,3-d]pyrimidin-4-yl)amino)ethyl)phenyl)ethan-1-ol]	< 100	< 50	≤ 1000	≤ 1000	< 500	< 500
Cc1nc(N[C@H](C)c2cccc(C(F)(F)F)c2F)c2cc(C3(C#N)CC3)c(N3CCN(C(C)C)CC3)nc2n1 [Compound 346, (R)-1-(4-((1-(2-fluoro-3-(trifluoromethyl)phenyl)ethyl)amino)-7-(4-isopropylpiperazin-1-yl)-2-methylpyrido[2,3-d]pyrimidin-6-yl)cyclopropane-1-carbonitrile]	< 100	< 50	≤ 1000	≤ 1000	< 500	< 500
Cc1nc(N[C@H](C)c2cccc(C(F)(F)CO)c2F)c2cc(C3(C#N)CC3)c(N3CCN(C(C)C)CC3)nc2n1 [Compound 347, (R)-1-(4-((1-(3-(1,1-difluoro-2-hydroxyethyl)-2-fluorophenyl)ethyl)amino)-7-(4-isopropylpiperazin-1-yl)-2-methylpyrido[2,3-d]pyrimidin-6-yl)cyclopropane-1-carbonitrile]	< 100	< 50	≤ 1000	≤ 1000	< 500	< 500
COc1nc2nc(C)nc(N[C@H](C)c3cccc(C(F)(F)F)c3F)c2cc1N1CCN(C)CC1 [Compound 349, (R)-N-(1-(2-fluoro-3-(trifluoromethyl)phenyl)ethyl)-7-methoxy-2-methyl-6-(4-methylpiperazin-1-yl)pyrido[2,3-d]pyrimidin-4-amine]	< 100	< 50	≤ 1000	≤ 1000	< 500	< 500
CCN1CCN(c2cc3c(N[C@H](C)c4cccc(C(F)(F)F)c4C)nc(C)nc3nc2OC)CC1 [Compound 350, (R)-6-(4-ethylpiperazin-1-yl)-7-methoxy-2-methyl-N-(1-(2-methyl-3-(trifluoromethyl)phenyl)ethyl)pyrido [2,3-d]pyrimidin-4-amine]	< 100	< 50	≤ 1000	≤ 1000	< 500	< 500
Cc1nc(N[C@H](C)c2cccc(C(F)F)c2F)c2cc(N3CCN(C(C)C)CC3)c(OCCN(C)C)nc2n1 [Compound 359, (R)-N-(1-(3-(difluoromethyl)-2-fluorophenyl)ethyl)-7-(2-(dimethylamino)ethoxy)-6-(4-isopropylpiperazin-1-yl)-2-methylpyrido[2,3-d] pyrimidin-4-amine]	< 100	< 50	≤ 1000	≤ 1000	< 500	< 500
COCCOc1nc2nc(C)nc(N[C@H](C)c3cccc(C(F)F)c3F)c2cc1N1CCN(C(C)C)CC1 [Compound 360, (R)-N-(1-(3-(difluoromethyl)-2-fluorophenyl)ethyl)-6-(4-isopropylpiperazin-1-yl)-7-(2-methoxyethoxy)-2-methylpyrido [2,3-d]pyrimidin-4-amine]	< 100	< 50	≤ 1000	≤ 1000	< 500	< 500
Cc1c([C@@H](C)Nc2ncnc3nc(Cl)c(C4(C#N)CC4)cc23)cccc1C(F)(F)F [Compound 364, (R)-1-(7-chloro-4-((1-(2-methyl-3-(trifluoromethyl)phenyl)ethyl)amino)pyrido[2,3-d]pyrimidin-6-yl) cyclopropane-1-carbonitrile]	100 to 1000	–	1000 to 10000	≤ 1000	< 500	–
Cc1nc(N[C@H](C)c2cccc(C(F)F)c2F)c2cc(N3CCN(C(C)C)CC3)c(OC3CNC3)nc2n1 [Compound 367, (R)-7-(azetidin-3-yloxy)-N-(1-(3-(difluoromethyl)-2-fluorophenyl)ethyl)-6-(4-isopropylpiperazin-1-yl)-2-methylpyrido[2,3-d]pyrimidin-4-amine]	< 100	< 50	1000 to 10000	≤ 1000	< 500	–
COCCOc1nc2nc(C)nc(N[C@H](C)c3cccc(C(F)F)c3F)c2cc1C1CCS(=N)(=O)CC1 (stereo partly drawn) [Compound 368, (R)-4-(4-((1-(3-(difluoromethyl)-2-fluorophenyl)ethyl)amino)-7-(2-methoxyethoxy)-2-methylpyrido[2,3-d]pyrimidin-6-yl)-1-iminohexahydro-1l6-thiopyran 1-oxide]	< 100	< 50	1000 to 10000	≤ 1000	< 500	–
Cc1nc(N[C@H](C)c2cccc(C(F)F)c2F)c2cc(C3CCN(C(C)C)CC3)c(OCCN(C)C)nc2n1 [Compound 369, (R)-N-(1-(3-(difluoromethyl)-2-fluorophenyl)ethyl)-7-(2-(dimethylamino)ethoxy)-6-(1-isopropylpiperidin-4-yl)-2-methylpyrido[2,3-d] pyrimidin-4-amine]	< 100	< 50	1000 to 10000	≤ 1000	–	–
Cc1nc(N[C@H](C)c2cccc(C(F)F)c2F)c2cc(N3CCN(C(C)C)CC3)c(OC3CN(C)C3)nc2n1 [Compound 370, (R)-N-(1-(3-(difluoromethyl)-2-fluorophenyl)ethyl)-6-(4-isopropylpiperazin-1-yl)-2-methyl-7-((1-methylazetidin-3-yl)oxy)pyrido[2,3-d]pyrimidin-4-amine]	< 100	< 50	≤ 1000	≤ 1000	–	–
CCN1CCN(c2cc3c(N[C@H](C)c4cccc(C(F)F)c4F)ncnc3nc2OC)CC1 [Compound 372, (R)-N-(1-(3-(difluoromethyl)-2-fluorophenyl)ethyl)-6-(4-ethylpiperazin-1-yl)-7-methoxypyrido[2,3-d]pyrimidin-4-amine]	< 100	–	≤ 1000	≤ 1000	< 500	< 500
COc1nc2nc(C)nc(N[C@H](C)c3cccc(C(F)(F)C4CCN(C(C)C)CC4)c3F)c2cc1C1CCS(=O)(=O)CC1 [Compound 379, (R)-4-(4-((1-(3-(difluoro(1-isopropylpiperidin-4-yl)methyl)-2-fluorophenyl)ethyl)amino)-7-methoxy-2-methylpyrido[2,3-d]pyrimidin-6-yl)tetrahydro-2H-thiopyran 1,1-dioxide]	< 100	< 50	≤ 1000	≤ 1000	< 500	< 500
COc1nc2ncnc(N[C@H](C)c3cccc(C(F)(F)F)c3C)c2cc1N1CCS(=O)(=O)CC1 [Compound 381, (R)-4-(7-methoxy-4-((1-(2-methyl-3-(trifluoromethyl)phenyl)ethyl)amino)pyrido[2,3-d]pyrimidin-6-yl) thiomorpholine 1,1-dioxide]	< 100	< 50	≤ 1000	≤ 1000	< 500	< 500
CCN1CCN(c2cc3c(N[C@H](C)c4cccc(C(F)(F)F)c4F)nc(C)nc3nc2OC)CC1 [Compound 383, (R)-6-(4-ethylpiperazin-1-yl)-N-(1-(2-fluoro-3-(trifluoromethyl)phenyl)ethyl)-7-methoxy-2-methylpyrido[2,3-d]pyrimidin-4-amine]	< 100	< 50	≤ 1000	≤ 1000	< 500	< 500
CC(C)N1CCC(c2cc3c(N[C@H](C)c4cccc(C(F)(F)F)c4F)ncnc3nc2Cl)CC1 [Compound 384, (R)-7-chloro-N-(1-(2-fluoro-3-(trifluoromethyl)phenyl)ethyl)-6-(1-isopropylpiperidin-4-yl)pyrido[2,3-d] pyrimidin-4-amine]	< 100	< 50	≤ 1000	≤ 1000	< 500	< 500
Cc1c([C@@H](C)Nc2ncnc3nc(Cl)c(C4CCN(C(C)C)CC4)cc23)cccc1C(F)(F)F [Compound 385, (R)-7-chloro-6-(1-isopropylpiperidin-4-yl)-N-(1-(2-methyl-3-(trifluoromethyl)phenyl)ethyl)pyrido [2,3-d]pyrimidin-4-amine]	< 100	< 50	≤ 1000	≤ 1000	< 500	< 500
